Patent publication US12421242B2, “Substituted tetrahydropyrrolo-pyridinone compounds and their use in treating medical conditions” (Karuna Therapeutics, Inc., priority 2022, dated 2025)
pEC50: −log10 of the molar value.

Tests used:
[1] = target: T1, hM4 receptors (Homo sapiens, UniProt P08173); assay: Human M4 PAM pERK assay; format: cell-based; settings: PAM mode
T1 construct: expressed in transfected cells; host or cells: CHO cells
T1 sequence (P08173 1-479): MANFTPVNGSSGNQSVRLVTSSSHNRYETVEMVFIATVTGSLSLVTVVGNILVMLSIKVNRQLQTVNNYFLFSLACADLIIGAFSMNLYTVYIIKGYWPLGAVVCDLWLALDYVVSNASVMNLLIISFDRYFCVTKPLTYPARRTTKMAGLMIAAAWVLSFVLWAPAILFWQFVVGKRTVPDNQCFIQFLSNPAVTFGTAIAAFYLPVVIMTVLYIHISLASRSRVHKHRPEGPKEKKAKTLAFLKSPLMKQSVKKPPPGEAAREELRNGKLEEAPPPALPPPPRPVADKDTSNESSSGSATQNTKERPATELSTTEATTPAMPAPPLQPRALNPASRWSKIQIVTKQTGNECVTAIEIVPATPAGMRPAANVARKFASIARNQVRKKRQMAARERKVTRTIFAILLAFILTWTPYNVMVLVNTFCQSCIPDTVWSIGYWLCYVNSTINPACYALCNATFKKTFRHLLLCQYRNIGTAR
Protocol: (§1) Chinese hamster ovary (CHO) cells expressing either hM4 or rM4 receptors were frozen in assay ready vials (5×10^6 cells/vial) after bulking-up in culture. The day before an assay, vial(s) were thawed and cells seeded in 384 well white proxiplates at 1000/well for hM4 cells and at 2000/well for rM4 cells, in 10 μL of growth media (Hams/F12 with glutamax and 10% FCS) and incubated overnight at 37° C./5% CO2.
(§2) On the following morning, the growth media was removed by ‘flicking out’ over a bin, patting the inverted plate onto tissue, and then replacing with 10 μL of wash media (Hams/F12 with glutamax and 8 mM HEPES, NB: serum free). Then, the wash media was removed in the same way and replaced with 8 μL/well of the serum free media. Plates were then re-incubated for a further 4 hours at 37° C./5% CO2.
(§3) Compounds for testing were solubilized to 10 mM in DMSO and compound addition plates, consisting of ten-point concentration response curves (CRC) in duplicate points (10 μM top concentration, […]), were prepared by acoustic dispensing and the compound management group.
(§4) After the 4-hour incubation in serum free media, a 4 μL aliquot of the 3× compound solution containing an EC20 of acetylcholine (10 nM final concentration) was added to the cell plate using a 384 well plate to plate transfer. Then, the plate lid was replaced, and the cells incubated for 5 mins at 37° C./5% CO2. Following this final incubation, all cellular processes were stopped by the addition of 4 μL/well of lysis and blocking buffer and plates were incubated for 30 minutes at RT on an orbital shaker (gentle setting). Then, a final addition of 4 μL/well of antibody detection mix, containing both the Europium-Cryptate (donor) and d2 (acceptor) tagged detection components, was added followed by a further 2-hour incubation at RT, and then the plate was read using a TR-FRET (time resolved fluorescence resonance energy transfer) based protocol.

[2] = target: T2, rM4 receptors (Rattus norvegicus, UniProt P08485); assay: Rat M4 PAM pERK assay; format: cell-based; settings: PAM mode
T2 construct: expressed in transfected cells; host or cells: CHO cells
T2 sequence (P08485 1-478): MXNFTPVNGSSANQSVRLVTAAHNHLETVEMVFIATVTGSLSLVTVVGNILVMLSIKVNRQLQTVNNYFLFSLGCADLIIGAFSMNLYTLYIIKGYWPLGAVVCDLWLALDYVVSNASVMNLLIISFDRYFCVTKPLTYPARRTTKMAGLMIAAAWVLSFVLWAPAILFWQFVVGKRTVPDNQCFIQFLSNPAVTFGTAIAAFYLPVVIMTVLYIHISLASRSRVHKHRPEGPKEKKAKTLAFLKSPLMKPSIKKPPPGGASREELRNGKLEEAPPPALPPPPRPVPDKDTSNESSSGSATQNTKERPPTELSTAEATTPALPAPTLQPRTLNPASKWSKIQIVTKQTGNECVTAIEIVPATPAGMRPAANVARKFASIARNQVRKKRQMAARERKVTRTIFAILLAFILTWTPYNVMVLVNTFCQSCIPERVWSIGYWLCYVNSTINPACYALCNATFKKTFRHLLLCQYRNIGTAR
Protocol: as §1, §2, §3, §4

In the case of `Cc1c2c(n(C)c(=O)c1Cl)CN(C(=O)c1cnn(CC(F)(F)F)c1)C2` [Compound I-61], the pEC50 [1] was 5.70 to 6.30 and the pEC50 [2] was < 5.70.

With `Cc1c2c(n(C)c(=O)c1Cl)CN(C(=O)c1cn(C)cn1)C2` [Compound I-4] the pEC50 [1] was 5.70 to 6.30 and the pEC50 [2] was < 5.70.

For `Cc1c2c(n(C)c(=O)c1Cl)CN(C(=O)c1cnn(Cc3ccncc3)c1)C2` [Compound I-60], the pEC50 [1] was 6.30 to 7.00 and the pEC50 [2] was < 5.70.

With `Cc1c2c(n(C)c(=O)c1F)CN(C(=O)c1cnn(C(F)(F)F)c1)[C@@H]2C` [Compound I-114, (R)-3-Fluoro-1,4,5-trimethyl-6-(1-(trifluoromethyl)-1H-pyrazole-4-carbonyl)-1,5,6,7-tetrahydro-2H-pyrrolo[3,4-b]pyridin-2-one] the pEC50 [1] was > 7.00 and the pEC50 [2] was 6.30 to 7.00.

For `Cc1c2c(n(CC3CC3)c(=O)c1Cl)CN(C(=O)c1ccc3nc(C4CCC4)sc3c1)C2` [Compound I-70], the pEC50 [1] was 6.30 to 7.00 and the pEC50 [2] was 6.30 to 7.00.

For `Cc1c2c(n(C)c(=O)c1Cl)CN(C(=O)c1cn(C(F)(F)F)cn1)C2` [Compound I-15], the pEC50 [1] was 6.30 to 7.00 and the pEC50 [2] was < 5.70.

`Cc1c2c(n(C)c(=O)c1Cl)CN(C(=O)c1ncc3ccccn13)C2` [Compound I-31] was tested, and the pEC50 [1] was < 5.70 and the pEC50 [2] was < 5.70.

For `Cc1c2c(n(C)c(=O)c1Cl)CN(C(=O)c1cn3c(n1)CCC3)C2` [Compound I-33], the pEC50 [1] was 6.30 to 7.00 and the pEC50 [2] was < 5.70.

In the case of `CCOc1c2c(n(C)c(=O)c1C)CN(C(=O)c1cnn(C(F)(F)F)c1)C2` [Compound I-88, 4-Ethoxy-1,3-dimethyl-6-(1-(trifluoromethyl)-1H-pyrazole-4-carbonyl)-1,5,6,7-tetrahydro-2H-pyrrolo[3,4-b]pyridin-2-one], the pEC50 [1] was > 7.00 and the pEC50 [2] was < 5.70.

For `Cc1c2c(n(C)c(=O)c1Cl)CN(C(=O)c1cnc(CC(F)(F)F)s1)C2` [Compound I-39], the pEC50 [1] was 5.70 to 6.30 and the pEC50 [2] was < 5.70.

With `Cc1c2c(n(C)c(=O)c1Cl)CN(C(=O)c1cnn(CC3CCCC3)c1)C2` [Compound I-55] the pEC50 [1] was 6.30 to 7.00 and the pEC50 [2] was < 5.70.

`Cc1c2c(n(C)c(=O)c1Cl)CN(C(=O)c1ccc3nonc3c1)C2` [Compound I-43] showed a pEC50 [1] of 6.30 to 7.00 and a pEC50 [2] of 5.70 to 6.30.

With `COc1c2c(n(C)c(=O)c1C)CN(C(=O)c1cnn(CC(F)(F)F)c1)C2` [Compound I-85, 4-Methoxy-1,3-dimethyl-6-(1-(2,2,2-trifluoroethyl)-1H-pyrazole-4-carbonyl)-1,5,6,7-tetrahydro-2H-pyrrolo[3,4-b]pyridin-2-one] the pEC50 [1] was 5.70 to 6.30 and the pEC50 [2] was < 5.70.

`COCc1ncc(C(=O)N2Cc3c(C)c(Cl)c(=O)n(C)c3C2)s1` [Compound I-38] was tested, and the pEC50 [1] was 6.30 to 7.00 and the pEC50 [2] was < 5.70.

In the case of `Cc1c2c(n(C)c(=O)c1Cl)CN(C(=O)c1ccc3ncsc3c1)C2` [Compound I-46], the pEC50 [1] was > 7.00 and the pEC50 [2] was 5.70 to 6.30.

In the case of `Cc1c2c(n(C)c(=O)c1Cl)CN(C(=O)c1ccc(C(C)(C)C)s1)C2` [Compound I-7], the pEC50 [1] was 5.70 to 6.30 and the pEC50 [2] was < 5.70.

`Cc1c2c(n(C)c(=O)c1C)CN(C(=O)c1ccc3nc(C4CC4)sc3c1)C2` [Compound I-111, 6-(2-Cyclopropylbenzo[d]thiazole-6-carbonyl)-1,3,4-trimethyl-1,5,6,7-tetrahydro-2H-pyrrolo[3,4-b]pyridin-2-one] was tested, and the pEC50 [1] was < 5.70 and the pEC50 [2] was 6.30 to 7.00.

`Cc1c2c(n(C)c(=O)c1Cl)CN(C(=O)c1cnc(CC3CC3(F)F)s1)C2` (stereo not drawn) [Compound I-65] was tested, and the pEC50 [1] was > 7.00 and the pEC50 [2] was 5.70 to 6.30.

With `Cc1c2c(n(C)c(=O)c1Cl)CN(C(=O)c1cc(C(F)(F)F)n(C)c1)C2` [Compound I-68, 3-Chloro-1,4-dimethyl-6-(1-methyl-5-(trifluoromethyl)-1H-pyrrole-3-carbonyl)-1,5,6,7-tetrahydro-2H-pyrrolo[3,4-b]pyridin-2-one] the pEC50 [1] was > 7.00 and the pEC50 [2] was 6.30 to 7.00.

`Cc1c2c(n(C)c(=O)c1Cl)CN(C(=O)c1cnc(CC(C)C)s1)C2` [Compound I-34] was tested, and the pEC50 [1] was 6.30 to 7.00 and the pEC50 [2] was 5.70 to 6.30.

For `Cc1c2c(n(C)c(=O)c1Cl)CN(C(=O)c1cnn(Cc3ccccc3)c1)C2` [Compound I-23], the pEC50 [1] was 6.30 to 7.00 and the pEC50 [2] was 5.70 to 6.30.
